Laboratory results published in US12227514B2, “Crystal forms of thiophene derivatives” (TIANJIN HEMAY PHARMACEUTICAL CO., LTD., priority 2018, dated 2025).

Key:
Type in all cases: physicochemical
[1] = Moisture absorption stability; details: RH=80%
Method: (§1) Crystal form I of (S)—N-[5-[1-(3-ethoxy-4-methoxyphenyl)-2-(methylsulfonyl)ethyl]-4,6-dioxo-5,6-dihydro-4H-thieno[3,4-c]pyrrole-1-yl]acetamide was placed in a drier containing saturated ammonium chloride solution (RH=80%) until weight was balanced. The crystal form stability of (S)—N-[5-[1-(3-ethoxy-4-methoxyphenyl)-2-(methylsulfonyl)ethyl]-4,6-dioxo-5,6-dihydro-4H-thieno[3,4-c]pyrrole-1-yl]acetamide was tested after weight was balanced.

[2] = Dissolution rate in water; details: about 25 mg in 900 mL water, 37° C., rotating speed 100/minute
Method: The crystal form I of (S)—N-[5-[1-(3-ethoxy-4-methoxyphenyl)-2-(methylsulfonyl)ethyl]-4,6-dioxo-5,6-dihydro-4H-thieno[3,4-c]pyrrole-1-yl]acetamide prepared according to the process in Example 1 was tested.
About 25 mg of crystal form I of (S)—N-[5-[1-(3-ethoxy-4-methoxyphenyl)-2-(methylsulfonyl)ethyl]-4,6-dioxo-5,6-dihydro-4H-thieno[3,4-c]pyrrole-1-yl]acetamide was added to 900 mL of water. The mixture was stirred at a rotating speed of 100/minute at 37° C. for 90 minutes. The supernatant was filtered and diluted. The concentration of the diluted solution (a mg/mL) was determined by ultraviolet spectrophotometer. The dissolution rate was calculated according to the formula 900a/25×100%.

[3] = Pressure stability (tablet press, DSC); details: single punch tablet press, tablet diameter 6 mm, hardness 25-30 N
Method: Crystal form I of (S)—N-[5-[1-(3-ethoxy-4-methoxyphenyl)-2-(methylsulfonyl)ethyl]-4,6-dioxo-5,6-dihydro-4H-thieno[3,4-c]pyrrole-1-yl]acetamide was pressed by tablet press machine with single punch. The diameter of the tablet was 6 mm and the hardness was 25-30 N. DSC test was carried out on pressed powder.

Illumination stability = assay: Illumination stability
Method: as §1, with “4500 lux of illumination box for 1 month. Crystal” for “drier containing saturated ammonium chloride solution (RH=80%) until weight was balanced. The crystal”, “1 month.” for “weight was balanced.”

[4] = High temperature stability and high temperature and high humidity stability; details: for Relevant Substance Contents after 1 Month: storage at 40° C.
Method: High Temperature Stability and High Temperature and High Humidity Stability Crystal form I of (S)—N-[5-[1-(3-ethoxy-4-methoxyphenyl)-2-(methylsulfonyl)ethyl]-4,6-dioxo-5,6-dihydro-4H-thieno[3,4-c]pyrrole-1-yl]acetamide was placed at 40° C. (high temperature) or at 40° C. and Rh=75% (high temperature and high humidity) for 1 month. Relevant substance contents of crystal form I of (S)—N-[5-[1-(3-ethoxy-4-methoxyphenyl)-2-(methylsulfonyl)ethyl]-4,6-dioxo-5,6-dihydro-4H-thieno[3,4-c]pyrrole-1-yl]acetamide were tested after 1 month.

CCOc1cc([C@@H](CS(C)(=O)=O)N2C(=O)c3csc(NC(C)=O)c3C2=O)ccc1OC [crystal form I, (S)—N-[5-[1-(3-ethoxy-4-methoxyphenyl)-2-(methylsulfonyl)ethyl]-4,6-dioxo-5,6-dihydro-4H-thieno[3,4-c]pyrrole-1-yl]acetamide]
Crystal form stability under high humidity conditions [1]: good crystal form stability | Dissolution Rate ([2]; time 15 min): 40.0% | Dissolution Rate ([2]; time 30 min): 55.9% | Dissolution Rate ([2]; time 45 min): 65.2% | Dissolution Rate ([2]; time 60 min): 71.4% | Dissolution Rate ([2]; time 75 min): 75.5% | Dissolution Rate ([2]; time 90 min): 78.0% | Pressure stability (DSC curve of pressed powder compared with FIG. 2) [3]: good stability | Relevant Substance Contents after 1 Month (Illumination stability; 4500 lux illumination box): 0.06% | Chemical stability under illumination conditions (Illumination stability; 4500 lux, 1 month): good chemical stability | Relevant Substance Contents at Day 0 (Illumination stability; before illumination): 0.06% | Chemical stability under high temperature and high-temperature and high-humidity conditions ([4]; 40° C. or 40° C. and RH 75%, 1 month): good chemical stability | Relevant Substance Contents at Day 0 ([4]; before storage): 0.06% | Relevant Substance Contents after 1 Month [4]: 0.07% | Relevant Substance Contents after 1 Month ([4]; RH = 75%): 0.09%
